This is an account of results in patent US20240165127A1, “CONTRAST AGENT FOR DIAGNOSIS OF VASCULAR DISEASE CONTAINING GADOLINIUM-BASED COMPOUND AS ACTIVE INGREDIENT AND SYNTHESIS METHOD THEREFOR” (DAEGU CATHOLIC UNIVERSITY INDUSTRY ACADEMIC COOPERATION …, priority 2022, published 2024).

The test system of one series is endothelial C166 cells. Briefly: In vitro cell viability, CCK-8 assay. Type of series: cell-based. The following applies: 0.01 to 0.1 mM, 24 hours. On the procedure:
The cytotoxicity of the Gd-DOTA click-SF probe was assessed against macrophage RAW264.7 cells and endothelial C166 cells using the CCK-8 assay according to the instructions provided by the manufacturer. RAW264.7 cells and endothelial C166 cells were cultured in DMEM containing 10% FBS and 1% penicillin-streptomycin (10000 U/ml). 2.5×10^4 RAW 264.7 cells and 3×10^3 C166 cells per well in 100 μL of DMEM well were seeded in 96-well plates. The cells were cultured at 37° C. for 24 hours in a humidified atmosphere containing 5% CO2, and then for comparison, each of the Gd-DOTA-click-SF probe and Dotarem was added thereto at concentrations of 0.01, 0.025, 0.05, 0.075, and 0.1 mM, followed by incubation at 37° C. for 24 hours. Thereafter, the cells were treated with 10 μl of CCK-8 solution and further cultured for 2 hours at 37° C., and the absorbance of each well was measured at 450 nm using a microplate reader.
A general note: Formazan colour is commonly taken as a measure of viable cells.

Series [1] in a line: In vitro molar longitudinal relaxivity (r1), 3.0T MRI, inversion recovery method. Type of series: physicochemical. The following applies: 25° C., concentrations 0.01, 0.02, 0.04, 0.06, 0.08, and 0.1 mM. As to the method:
(§1) To obtain quantitative information on the efficacy of the Gd-DOTA-click-SF probe and Dotarem as MRI contrast agents, the molar longitudinal relaxivities (r1) thereof were analyzed. At 25° C., 3.0T MRI was performed using the inversion recovery method, and 9.4T MRI was performed using the RARE (Rapid Acquisition with Refocused Echoes) method.

Series [2] is described as follows: Transmetallation kinetics: stability of Gd(III) complex in presence of Zn(II) ions, ICP/MS. Type of series: physicochemical. The following applies: 1 mM complex, 250 mM ZnCl2 in phosphate buffer, 0 to 48 hours. On the procedure:
In vivo, the transmetallation of the Gd complex occurs because Gd^3+ ions compete with other endogenous cations and endogenous anions that destabilize the gadolinium complex and shift the dissociation equilibrium toward its free components. For this reason, the in vitro stability of the Gd(III) complex should be investigated in the presence of Zn(II) ions. 8 μL of a solution of 250 mM ZnCl2 in phosphate buffer was added to 1.5 mL of 1 mM Gd-DOTA-click-SF complex and the mixture was stirred. Thereafter, the solution was collected at 0, 2, 4, 6, 8, 24, and 48 hours and filtered. […] To compare the stability of Gd-DOTA-click-SF with that the clinical contrast agent Dotarem, the same procedure was repeated three times.

The next series relates to elastase activity. Nature of the series: Ex vivo T1-weighted MRI, CNR and ICP/MS gadolinium content of aortas from rats with induced abdominal aortic aneurysm (AAA) and from healthy rats. Also on record: species or system Sprague-Dawley (SD) rats. The following applies: for T1-signal intensity in T1-weighted MRI: immersed at 1.28 mM for 1 hour, washed 3 times with PBS. An excerpt:
As experimental animals, 7-week-old Sprague-Dawley (SD) rats were used. The rats were maintained on a 12-hour light-dark cycle with free access to water and feed for one week of acclimatization. Then, the rats were randomly divided into a normal control group and an experimental group (aortic aneurysm group), and each group was further divided into a Dotarem-administered group and a Gd-DOTA-click-SF-administered group. Accordingly, the rats were divided into a total of 4 groups, each consisting of 4 animals.
To induce an abdominal aortic aneurysm, rats were anesthetized by inhalation with 2 to 2.5% isoflurane, and then their abdomen was incised to expose the aortic branches. Next, 300 μL of 12U porcine pancreatic elastase was perfused for 10 minutes.
After 5 weeks, the aorta with induced abdominal aortic aneurysm was harvested, immersed in Dotarem or the Gd-DOTA-click-SF of the present disclosure at 1.28 mM for 1 hour under shaking. Then, it was taken out and washed 3 times with PBS. Finally, the samples were placed in PCR tubes filled with PBS and were examined by T1-weighted MRI. The same procedure was also applied to the aorta from the healthy normal control group, which was immersed in Dotarem or the Gd-DOTA-click-SF of the present disclosure at 1.28 mM for 1 hour under shaking. Then, it was taken out and washed 3 times with PBS. Finally, the samples were placed in PCR tubes filled with PBS and were examined by T1-weighted MRI.
The CNRs of the MRI results for the four groups, identified in Example 7, were examined, and the concentrations of gadolinium were measured using ICP/MS (ICP/MS 7700, Agilent, USA).

A short description of series [3]: In vitro molar longitudinal relaxivity (r1), 9.4T MRI, RARE method. Type of series: physicochemical. The following applies: 25° C. As to the method: as §1

Values joined by “and” are separate entries in the source; they are usually repeats but may differ in a detail not shown here. Equal values may be shown once.

Turning to `CNC[C@H](O)[C@@H](O)[C@H](O)[C@H](O)CO.O=C([O-])CN1CCN(CC(=O)[O-])CCN(CC(=O)O)CCN(CC(=O)[O-])CC1.[Gd+3]` [Dotarem], in the series on endothelial C166 cells, the “cell viability / cytotoxicity” value is reported as “non-cytotoxic”. In series [1], the “3.0T r1 (molar longitudinal relaxivity)” value was 2.105 mM^−1s^−1 and 2.211^a mM^−1s^−1. Also, the “stability of Gd(III) complex (kinetic inertness, transmetallation)” value in series [2] is on record as “very stable in the presence of Zn(II) ions without transmetallation”. For the same compound, the “T1-signal intensity in T1-weighted MRI” value with elastase activity (AAA aorta ex vivo) and with elastase activity (healthy normal aorta ex vivo) was “did not show high signal intensity” throughout. Further, in the series with elastase activity (ex vivo aortas, after washing with PBS), the “binding to the arterial wall” value is recorded as “very low”. Further, the “9.4T r1 (molar longitudinal relaxivity)” value in series [3] (concentrations 0.01, 0.02, 0.04, 0.06, 0.08, and 0.1 mM) is 4.647 mM^−1s^−1 and 4.647^a mM^−1s^−1; in series [3] (concentrations 0.04, 0.08, 0.16, 0.32, and 0.64 mM), 5.064 mM^−1s^−1 and 5.064^b mM^−1s^−1.
